How the values were obtained:
[1] = target: Homeodomain-interacting protein kinase 2 (Homo sapiens) (UniProt Q9H2X6); experiment: Binding affinity to wild-type human partial length HIPK2 (M153 to S564 residues) expressed in HEK293 cells at 1 uM by Kinomescan method relative to control; format: cell-based
[2] = target: Mitogen-activated protein kinase kinase kinase 12 (DLK) (Homo sapiens) (UniProt Q12852); experiment: Binding affinity to wild-type human full length DLK (M1 to P859 residues) expressed in HEK293 cells at 1 uM by Kinomescan method relative to control
[3] = system: Epidermal growth factor receptor (Homo sapiens), P00533 [UNDEFINED MUTATION]; experiment: Binding affinity to human partial length EGFR L747-S752del/P753S mutant expressed in Escherichia coli BL21 at 1 uM by Kinomescan method relative to control
[4] = system: Phosphatidylinositol 4,5-bisphosphate 3-kinase catalytic subunit alpha isoform (Homo sapiens), P42336 [H1047L]; experiment: Binding affinity to human partial length PIK3CA H1047L mutant (R108 to N1068 residues) expressed in HEK293 cells at 1 uM by Kinomescan method relative to control; format: cell-based
[5] = target: Tyrosine-protein kinase BTK (Homo sapiens) (UniProt Q06187); experiment: Binding affinity to wild-type human full length BTK (M1 to S659 residues) expressed in HEK293 cells at 1 uM by Kinomescan method relative to control; format: cell-based
[6] = system: Tyrosine-protein kinase ABL1 (Homo sapiens), P00519 [E255K]; experiment: Binding affinity to human phosphorylated ABL1 E255K mutant (S229 to K512 residues) expressed in HEK293 cells at 1 uM by Kinomescan method relative to control; format: cell-based
[7] = target: Calcium/calmodulin-dependent protein kinase kinase 2 (Homo sapiens) (UniProt Q96RR4); experiment: Binding affinity to wild-type human partial length CAMKK2 (D65 to V471 residues) expressed in Escherichia coli BL21 at 1 uM by Kinomescan method relative to control
Chain of Calcium/calmodulin-dependent protein kinase kinase 2 (Homo sapiens) (Q96RR4 2-588 limits assumed): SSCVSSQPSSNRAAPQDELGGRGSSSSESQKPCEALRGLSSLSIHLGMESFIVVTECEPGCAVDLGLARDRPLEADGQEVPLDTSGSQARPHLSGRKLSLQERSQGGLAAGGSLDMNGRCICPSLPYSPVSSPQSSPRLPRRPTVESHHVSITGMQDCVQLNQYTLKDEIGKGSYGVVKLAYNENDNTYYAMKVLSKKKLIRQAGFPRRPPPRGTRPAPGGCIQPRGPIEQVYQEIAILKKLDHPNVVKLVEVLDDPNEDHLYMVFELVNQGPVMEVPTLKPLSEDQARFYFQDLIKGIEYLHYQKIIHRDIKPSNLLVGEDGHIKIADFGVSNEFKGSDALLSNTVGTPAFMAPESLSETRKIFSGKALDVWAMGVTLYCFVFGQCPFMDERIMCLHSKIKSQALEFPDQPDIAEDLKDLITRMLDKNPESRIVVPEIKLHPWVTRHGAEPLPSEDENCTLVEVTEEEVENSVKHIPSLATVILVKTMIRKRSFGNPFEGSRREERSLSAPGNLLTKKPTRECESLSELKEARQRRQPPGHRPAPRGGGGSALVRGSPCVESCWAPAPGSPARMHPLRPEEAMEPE

[8] = system: Tyrosine-protein kinase ABL1 (Homo sapiens), P00519 [F317I]; experiment: Binding affinity to human non-phosphorylated ABL1 F317I mutant (S229 to K512 residues) expressed in HEK293 cells at 1 uM by Kinomescan method relative to control; format: cell-based
[9] = target: Bone morphogenetic protein receptor type-1B (Homo sapiens) (UniProt O00238); experiment: Binding affinity to wild-type human partial length BMPR1B (D178 to L502 residues) expressed in HEK293 cells at 1 uM by Kinomescan method relative to control; format: cell-based
Chain of Bone morphogenetic protein receptor type-1B (Homo sapiens) (O00238 whole entry, the tested form may be a part): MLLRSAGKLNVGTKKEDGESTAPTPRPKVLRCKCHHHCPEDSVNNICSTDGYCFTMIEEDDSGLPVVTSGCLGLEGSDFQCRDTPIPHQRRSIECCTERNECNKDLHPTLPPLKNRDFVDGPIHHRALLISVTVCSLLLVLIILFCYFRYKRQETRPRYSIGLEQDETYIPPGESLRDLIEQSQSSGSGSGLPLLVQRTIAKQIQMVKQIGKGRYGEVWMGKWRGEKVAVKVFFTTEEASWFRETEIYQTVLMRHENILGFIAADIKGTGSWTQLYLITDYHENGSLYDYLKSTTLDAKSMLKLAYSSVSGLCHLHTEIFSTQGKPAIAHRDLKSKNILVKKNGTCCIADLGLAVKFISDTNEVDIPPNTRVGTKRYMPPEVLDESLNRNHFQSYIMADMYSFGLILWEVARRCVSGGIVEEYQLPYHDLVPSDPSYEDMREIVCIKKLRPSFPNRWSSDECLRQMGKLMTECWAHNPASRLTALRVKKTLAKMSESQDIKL

[10] = target: Inhibitor of nuclear factor kappa-B kinase subunit epsilon (Homo sapiens) (UniProt Q14164); experiment: Binding affinity to wild-type human full length IKK-epsilon (M1 to V716 residues) expressed in HEK293 cells at 1 uM by Kinomescan method relative to control; format: cell-based
[11] = target: cGMP-dependent protein kinase 2 (Homo sapiens) (UniProt Q13237); experiment: Binding affinity to wild-type human partial length PRKG2 (S422 to F762 residues) expressed in HEK293 cells at 1 uM by Kinomescan method relative to control; format: cell-based
Chain of cGMP-dependent protein kinase 2 (Homo sapiens) (Q13237 whole entry, the tested form may be a part): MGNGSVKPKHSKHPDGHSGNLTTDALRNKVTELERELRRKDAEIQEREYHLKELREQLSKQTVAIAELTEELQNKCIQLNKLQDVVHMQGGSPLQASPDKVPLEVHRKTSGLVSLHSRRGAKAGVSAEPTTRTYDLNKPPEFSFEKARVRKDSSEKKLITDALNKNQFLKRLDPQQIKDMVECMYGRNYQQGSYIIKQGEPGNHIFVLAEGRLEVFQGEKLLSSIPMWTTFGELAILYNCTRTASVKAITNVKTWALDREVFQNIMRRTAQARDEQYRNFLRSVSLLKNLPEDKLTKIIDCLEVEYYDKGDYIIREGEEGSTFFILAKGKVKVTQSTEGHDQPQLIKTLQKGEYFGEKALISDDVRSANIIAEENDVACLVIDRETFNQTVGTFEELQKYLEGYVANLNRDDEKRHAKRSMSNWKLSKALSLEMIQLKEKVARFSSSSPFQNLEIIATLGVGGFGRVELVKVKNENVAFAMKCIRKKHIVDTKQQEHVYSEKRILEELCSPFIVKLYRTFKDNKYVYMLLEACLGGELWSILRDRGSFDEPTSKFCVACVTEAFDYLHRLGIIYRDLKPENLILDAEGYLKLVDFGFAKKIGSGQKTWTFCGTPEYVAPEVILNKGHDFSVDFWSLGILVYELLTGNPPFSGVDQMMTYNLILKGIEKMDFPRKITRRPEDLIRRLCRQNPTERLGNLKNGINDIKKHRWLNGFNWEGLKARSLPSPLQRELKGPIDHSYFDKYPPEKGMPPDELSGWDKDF

[12] = target: Tyrosine-protein kinase ZAP-70 (Homo sapiens) (UniProt P43403); experiment: Binding affinity to wild-type human partial length ZAP70 (D20 to G299 residues) expressed in HEK293 cells at 1 uM by Kinomescan method relative to control; format: cell-based
[13] = target: Ephrin type-A receptor 3 (Homo sapiens) (UniProt P29320); experiment: Binding affinity to wild-type human partial length EPHA3 (D604 to K889 residues) expressed in Escherichia coli BL21 at 1 uM by Kinomescan method relative to control
[14] = target: Insulin receptor (Homo sapiens) (UniProt P06213); experiment: Binding affinity to wild-type human partial length INSR (P997 to E1318 residues) expressed in HEK293 cells at 1 uM by Kinomescan method relative to control; format: cell-based
[15] = target: Mast/stem cell growth factor receptor Kit (Homo sapiens) (UniProt P10721); experiment: Binding affinity to wild-type human partial length KIT (I571 to D952 residues) expressed in Escherichia coli BL21 at 1 uM by Kinomescan method relative to control
[16] = target: STE20-like serine/threonine-protein kinase (Homo sapiens) (UniProt Q9H2G2); experiment: Binding affinity to wild-type human partial length SLK (S14 to A307 residues) expressed in Escherichia coli BL21 at 1 uM by Kinomescan method relative to control
[17] = target: Phosphatidylinositol 5-phosphate 4-kinase type-2 gamma (Homo sapiens) (UniProt Q8TBX8); experiment: Binding affinity to wild-type human partial length PIP5K2C (M1 to A421 residues) expressed in HEK293 cells at 1 uM by Kinomescan method relative to control; format: cell-based
[18] = target: ALK tyrosine kinase receptor (Homo sapiens) (UniProt Q9UM73); experiment: Binding affinity to wild-type human partial length ALK (I1088 to E1409 residues) expressed in HEK293 cells at 1 uM by Kinomescan method relative to control; format: cell-based
[19] = target: Homeodomain-interacting protein kinase 4 (Homo sapiens) (UniProt Q8NE63); experiment: Binding affinity to wild-type human partial length HIPK4 (M1 to V384 residues) expressed in Escherichia coli BL21 at 1 uM by Kinomescan method relative to control
[20] = target: Ribosomal protein S6 kinase alpha-5 (Homo sapiens) (UniProt O75582); experiment: Binding affinity to wild-type human partial length N-terminal RPS6KA5 kinase domain 1 expressed in Escherichia coli BL21 at 1 uM by Kinomescan method relative to control
[21] = target: Tyrosine-protein kinase receptor Tie-1 (Homo sapiens) (UniProt P35590); experiment: Binding affinity to wild-type human partial length TIE1 (T819 to A1138 residues) expressed in Escherichia coli BL21 at 1 uM by Kinomescan method relative to control
[22] = target: Transient receptor potential cation channel subfamily M member 6 (Homo sapiens) (UniProt Q9BX84); experiment: Binding affinity to wild-type human partial length TRPM6 (Q1723 to I1998 residues) expressed in HEK293 cells at 1 uM by Kinomescan method relative to control; format: cell-based
Chain of Transient receptor potential cation channel subfamily M member 6 (Homo sapiens) (Q9BX84 whole entry, the tested form may be a part): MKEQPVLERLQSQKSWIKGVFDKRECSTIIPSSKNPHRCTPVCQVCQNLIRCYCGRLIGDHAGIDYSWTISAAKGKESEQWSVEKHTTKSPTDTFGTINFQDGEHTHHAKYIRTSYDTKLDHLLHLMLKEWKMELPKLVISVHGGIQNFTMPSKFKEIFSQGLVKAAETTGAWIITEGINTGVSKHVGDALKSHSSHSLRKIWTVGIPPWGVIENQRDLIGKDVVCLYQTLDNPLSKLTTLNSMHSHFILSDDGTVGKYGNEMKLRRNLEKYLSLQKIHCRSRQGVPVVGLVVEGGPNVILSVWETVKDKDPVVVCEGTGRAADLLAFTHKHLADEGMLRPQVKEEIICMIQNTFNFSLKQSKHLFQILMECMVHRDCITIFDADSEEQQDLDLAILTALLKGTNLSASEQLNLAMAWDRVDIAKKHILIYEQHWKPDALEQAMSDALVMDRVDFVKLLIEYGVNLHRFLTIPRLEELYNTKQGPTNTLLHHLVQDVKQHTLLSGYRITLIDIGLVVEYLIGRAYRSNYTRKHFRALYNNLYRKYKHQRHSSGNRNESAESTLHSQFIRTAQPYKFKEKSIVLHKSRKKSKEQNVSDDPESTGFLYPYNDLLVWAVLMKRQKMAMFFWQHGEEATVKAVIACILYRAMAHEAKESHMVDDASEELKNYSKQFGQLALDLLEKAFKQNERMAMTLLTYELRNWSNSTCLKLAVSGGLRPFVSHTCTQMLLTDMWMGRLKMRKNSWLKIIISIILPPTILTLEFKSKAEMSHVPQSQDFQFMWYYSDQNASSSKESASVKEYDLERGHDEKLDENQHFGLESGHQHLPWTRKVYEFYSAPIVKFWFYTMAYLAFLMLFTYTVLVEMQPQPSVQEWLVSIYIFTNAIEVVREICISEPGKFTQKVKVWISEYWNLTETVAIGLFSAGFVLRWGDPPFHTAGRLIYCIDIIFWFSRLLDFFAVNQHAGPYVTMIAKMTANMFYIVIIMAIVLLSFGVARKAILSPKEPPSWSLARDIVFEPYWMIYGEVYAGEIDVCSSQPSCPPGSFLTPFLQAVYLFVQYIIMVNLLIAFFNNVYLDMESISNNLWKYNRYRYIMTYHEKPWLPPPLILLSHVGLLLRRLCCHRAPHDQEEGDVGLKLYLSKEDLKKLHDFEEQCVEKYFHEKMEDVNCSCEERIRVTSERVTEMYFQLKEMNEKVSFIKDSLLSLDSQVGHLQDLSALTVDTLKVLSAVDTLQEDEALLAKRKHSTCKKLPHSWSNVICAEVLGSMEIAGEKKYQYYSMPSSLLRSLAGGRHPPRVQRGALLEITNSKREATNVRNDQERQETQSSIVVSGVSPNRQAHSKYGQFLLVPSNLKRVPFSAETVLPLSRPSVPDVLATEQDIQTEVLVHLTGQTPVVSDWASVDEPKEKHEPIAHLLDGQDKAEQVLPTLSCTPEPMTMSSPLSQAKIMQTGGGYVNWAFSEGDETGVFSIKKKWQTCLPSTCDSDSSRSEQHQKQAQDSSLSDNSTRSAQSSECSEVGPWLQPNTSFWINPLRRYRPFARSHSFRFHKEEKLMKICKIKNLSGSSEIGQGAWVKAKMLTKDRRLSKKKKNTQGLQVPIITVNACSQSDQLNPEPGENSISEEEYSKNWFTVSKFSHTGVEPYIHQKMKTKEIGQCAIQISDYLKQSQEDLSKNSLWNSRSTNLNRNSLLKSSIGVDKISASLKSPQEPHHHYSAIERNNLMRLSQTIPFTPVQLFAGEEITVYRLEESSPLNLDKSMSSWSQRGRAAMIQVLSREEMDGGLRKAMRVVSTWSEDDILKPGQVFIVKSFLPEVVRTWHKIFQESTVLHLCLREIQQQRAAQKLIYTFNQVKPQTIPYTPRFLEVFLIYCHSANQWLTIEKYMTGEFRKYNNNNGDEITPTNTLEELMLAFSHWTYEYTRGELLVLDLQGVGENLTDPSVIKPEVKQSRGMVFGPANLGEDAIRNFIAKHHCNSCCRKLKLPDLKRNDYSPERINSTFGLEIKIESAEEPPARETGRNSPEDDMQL

[23] = target: Ephrin type-A receptor 4 (Homo sapiens) (UniProt P54764); experiment: Binding affinity to wild-type human partial length EPHA4 (T601 to R897 residues) expressed in Escherichia coli BL21 at 1 uM by Kinomescan method relative to control
Chain of Ephrin type-A receptor 4 (Homo sapiens) (P54764 whole entry, the tested form may be a part): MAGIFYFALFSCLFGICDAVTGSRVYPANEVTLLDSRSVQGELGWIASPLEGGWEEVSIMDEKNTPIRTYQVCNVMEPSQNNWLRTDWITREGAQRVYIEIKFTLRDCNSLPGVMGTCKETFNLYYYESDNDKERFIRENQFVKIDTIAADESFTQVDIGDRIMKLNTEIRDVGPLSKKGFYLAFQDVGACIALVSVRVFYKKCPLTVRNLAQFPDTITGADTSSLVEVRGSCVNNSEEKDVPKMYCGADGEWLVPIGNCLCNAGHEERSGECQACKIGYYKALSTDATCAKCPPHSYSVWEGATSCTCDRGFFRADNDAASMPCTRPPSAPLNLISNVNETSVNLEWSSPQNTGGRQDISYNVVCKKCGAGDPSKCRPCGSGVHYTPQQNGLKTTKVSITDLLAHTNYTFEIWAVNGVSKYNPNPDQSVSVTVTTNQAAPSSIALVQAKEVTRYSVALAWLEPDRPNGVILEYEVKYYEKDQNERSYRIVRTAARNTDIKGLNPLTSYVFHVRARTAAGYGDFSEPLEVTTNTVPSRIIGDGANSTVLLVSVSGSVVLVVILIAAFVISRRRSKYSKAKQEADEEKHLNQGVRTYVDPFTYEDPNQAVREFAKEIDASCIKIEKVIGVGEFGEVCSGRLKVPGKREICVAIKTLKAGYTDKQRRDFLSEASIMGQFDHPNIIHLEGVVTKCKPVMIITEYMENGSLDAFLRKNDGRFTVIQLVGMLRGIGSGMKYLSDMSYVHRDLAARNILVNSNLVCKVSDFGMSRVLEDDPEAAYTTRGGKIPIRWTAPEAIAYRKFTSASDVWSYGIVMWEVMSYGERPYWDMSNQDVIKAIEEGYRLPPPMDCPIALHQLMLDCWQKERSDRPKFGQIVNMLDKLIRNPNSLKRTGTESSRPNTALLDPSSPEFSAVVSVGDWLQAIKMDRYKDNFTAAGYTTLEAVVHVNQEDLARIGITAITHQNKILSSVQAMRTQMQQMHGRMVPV

[24] = system: Receptor-type tyrosine-protein kinase FLT3 (Homo sapiens), P36888 [N841I]; experiment: Binding affinity to human partial length FLT3 N841I mutant (V592 to Y969 residues) expressed in Escherichia coli BL21 at 1 uM by Kinomescan method relative to control
[25] = target: Serine/threonine-protein kinase 38 (Homo sapiens) (UniProt Q15208); experiment: Binding affinity to wild-type human partial length NDR1 (N33 to E449 residues) expressed in HEK293 cells at 1 uM by Kinomescan method relative to control; format: cell-based

Row | SMILES | Activity [1] | Activity [2] | Activity [3] | Activity [4] | Activity [5] | Activity [6] | Activity [7] | Activity [8] | Activity [9] | Activity [10] | Activity [11] | Activity [12] | Activity [13] | Activity [14] | Activity [15] | Activity [16] | Activity [17] | Activity [18] | Activity [19] | Activity [20] | other results
1 | CCC(=O)Nc1ccc(C(=O)Nc2ccc(Nc3ncc4c(n3)N(C)c3ccc(C)cc3C(=O)N4C)cc2)cc1 | 100% | 98% | 87% | 70% | 100% | 60% | 89% | 76% | 62% | 68% | 84% | 95% | 99% | 65% | 84% | 87% | 100% | 83% | 95% | 100% | Activity [21]: 88%; Activity [22]: 100%; Activity [23]: 97%; Activity [24]: 81%; Activity [25]: 80%
2 | C=CC(=O)Nc1ccc(C(=O)Nc2ccc(Nc3ncc4c(n3)N(C)c3ccc(C)cc3C(=O)N4C)cc2)cc1 | 94% | 100% | 99% | 63% | 94% | 77% | 92% | 77% | 100% | 88% | 88% | 97% | 100% | 97% | 98% | 94% | 56% | 100% | 95% | 100% | Activity [21]: 96%; Activity [22]: 96%; Activity [23]: 93%; Activity [24]: 100%; Activity [25]: 87%
